Reference: patent US20250019385A1, “SPIROCYCLIC ANNULATED 2-AMINO-3-CYANO THIOPHENES AND DERIVATIVES FOR THE TREATMENT OF CANCER” (Boehringer Ingelheim International GmbH, priority 2023, published 2025)

Tested on: Ba/F3 cells KRAS G12V
Assay: Ba/F3 proliferation assay (KRAS G12V)
Format: cell-based
Settings: Mus musculus, BaF3, 72 h, AlamarBlue viability
Method: (§1) Ba/F3 cells are ordered from DSMZ (ACC300, Lot17) and grown in RPMI-1640 (ATCC 30-2001)+10% FCS+10 ng/mL IL-3 at 37° C. in 5% […] atmosphere. Plasmids containing KRASG12 mutants (i.e. […], G12C, G12V) are obtained from GeneScript. To generate KRASG12-dependent Ba/F3 models, Ba/F3 cells are transduced with retroviruses containing vectors that harbor KRASG12 isoforms. Platinum-E cells (Cell Biolabs) are used for retrovirus packaging. Retrovirus is added to Ba/F3 cells. To ensure infection, 4 μg/mL polybrene is added and cells are spinfected. Infection efficiency is confirmed by measuring GFP-positive cells using a cell analyzer. Cells with an infection efficiency of 10% to 20% are further cultivated and puromycin selection with 1 μg/mL is initiated. As a control, parental Ba/F3 cells are used to show selection status. Selection is considered successful when parental Ba/F3 cells cultures died. To evaluate the transforming potential of KRASG12 mutations, the growth medium is no longer supplemented with IL-3. Ba/F3 cells harboring the empty vector are used as a control. Approximately ten days before conducting the experiments, puromycin is left out.
(§2) For proliferation assays, Ba/F3 cells are seeded into 384-well plates at 1.5×1 (M cells/60 μL in growth media (RPMI-1640+10% FCS). Compounds (10 mM stock in DMSO) are added at logarithmic dose series using the ECHO acoustic liquid handler system (Beckman Coulter), normalizing for added DMSO and including DMSO controls. All compound treatments are performed in technical duplicates. For the TO time point measurement, untreated cells are analyzed at the time of compound addition. Treated cells are incubated for 72 h at 37° C. with 5% CO2 and cell viability is measured in the PerkinElmer Envision Multimode Reader using AlamarBlue™ (ThermoFisher) viability stain. Viability (stated as percent of control) is defined as relative fluorescence units RFU of each well divided by the RFU of cells in DMSO controls. IC50 values are determined from viability measurements by non-linear regression using a four-parameter model.
For `C[C@H](Oc1nc(-c2onc3c2CCC[C@@]32CCCc3sc(N)c(C#N)c32)nc2c1n(C)c(=O)n2[C@@]12COC[C@@H]1C2)[C@@H]1CC[C@H](C)N1C` [I-45], the IC50 was 1 nM.
For `CO[C@H]1C[C@H](n2c(=O)n(C)c3c(O[C@@H](C)[C@@H]4CCCN4C)nc(-c4onc5c4CCC[C@@]54CCCc5sc(N)c(C#N)c54)nc32)C1` [I-16], the IC50 was 226 nM.
Work on `C[C@H](Oc1nc(-c2onc3c2CCC[C@@]32CCCc3sc(N)c(C#N)c32)nc2c1[nH]c(=O)n2[C@@H]1CCOC1)[C@@H]1CCCN1C` [I-8] yielded an IC50 of 20 nM.
With `C[C@H](Oc1nc(-c2onc3c2CCC[C@@]32CCCc3sc(N)c(C#N)c32)nc2c1n(C)c(=O)n2[C@@]12COC[C@@H]1C2)[C@@H]1CCCN1C` [I-29] the IC50 was 1 nM.
With `C[C@H](Oc1nc(-c2noc3c2CCC[C@@]32CCCc3sc(N)c(C#N)c32)nc2c1CCCO[C@]21CCOC1)[C@@H]1CCCN1C` [II-10] the IC50 was 6 nM.
In the case of `C[C@H](Oc1nc(-c2noc3c2CCC[C@@]32CCCc3sc(N)c(C#N)c32)nc2c1CN(C1COC1)C[C@]21CCOC1)[C@@H]1CC[C@H](C)N1C` [II-17], the IC50 is reported as 1 nM.
`C[C@H](Oc1nc(-c2onc3c2CCC[C@@]32CCCc3sc(N)c(C#N)c32)nc2c1n(C)c(=O)n2[C@@H]1CCCOC1)[C@@H]1CCCN1C` [I-12] gave an IC50 of 2 nM.

Tested on: Ba/F3 cells KRAS G12C
Assay: Ba/F3 proliferation assay (KRAS G12C)
Format: cell-based
Settings: Mus musculus, BaF3, 72 h, AlamarBlue viability
Method: as §1, §2
For `C[C@H](Oc1nc(-c2onc3c2CCC[C@@]32CCCc3sc(N)c(C#N)c32)nc2c1n(C)c(=O)n2[C@@]12COC[C@@H]1C2)[C@@H]1CC[C@H](C)N1C` [I-45], the IC50 was 1 nM.
`CO[C@H]1C[C@H](n2c(=O)n(C)c3c(O[C@@H](C)[C@@H]4CCCN4C)nc(-c4onc5c4CCC[C@@]54CCCc5sc(N)c(C#N)c54)nc32)C1` [I-16] gave an IC50 of 288 nM.
Work on `C[C@H](Oc1nc(-c2onc3c2CCC[C@@]32CCCc3sc(N)c(C#N)c32)nc2c1[nH]c(=O)n2[C@@H]1CCOC1)[C@@H]1CCCN1C` [I-8] yielded an IC50 of 41 nM.
`C[C@H](Oc1nc(-c2onc3c2CCC[C@@]32CCCc3sc(N)c(C#N)c32)nc2c1n(C)c(=O)n2[C@@]12COC[C@@H]1C2)[C@@H]1CCCN1C` [I-29] showed an IC50 of 2 nM.
In the case of `C[C@H](Oc1nc(-c2noc3c2CCC[C@@]32CCCc3sc(N)c(C#N)c32)nc2c1CCCO[C@]21CCOC1)[C@@H]1CCCN1C` [II-10], the IC50 is reported as 7 nM.
In the case of `C[C@H](Oc1nc(-c2noc3c2CCC[C@@]32CCCc3sc(N)c(C#N)c32)nc2c1CN(C1COC1)C[C@]21CCOC1)[C@@H]1CC[C@H](C)N1C` [II-17], the IC50 is reported as 3 nM.
In the case of `C[C@H](Oc1nc(-c2onc3c2CCC[C@@]32CCCc3sc(N)c(C#N)c32)nc2c1n(C)c(=O)n2[C@@H]1CCCOC1)[C@@H]1CCCN1C` [I-12], the IC50 is reported as 4 nM.

Tested on: LOVO cells
Assay: LOVO CTG proliferation assay (120 h) (CRC, G13D)
Format: cell-based
Settings: Homo sapiens
Method: LOVO cells (ATCC No. CCL-229) are dispensed into black 384-well plates, flat and clear bottom (Greiner, PNr. 781091) at a density of 1000 cells per well in 60 μl DMEM (Sigma D6429)+10% FCS (fetal calf serum, HyClone, SH30084.03). Cells are incubated overnight at 37° C. in a humidified tissue culture incubator at 5% CO2. Compounds (10 mM stock in DMSO) are added at logarithmic dose series using the ECHO acoustic liquid handler system (Beckman Coulter), normalizing for added DMSO and including DMSO controls. All compound treatments are performed in technical duplicates. For the TO time point measurement, untreated cells are analyzed at the time of compound addition. Plates are incubated for 120 h, and cell viability is measured using CellTiter-Glo luminescent cell viability reagent (Promega product code G7570). Viability (stated as percent of control) is defined as relative luminescence units RLU of each well divided by the RLU of cells in DMSO controls. IC50 values are determined from viability measurements by non-linear regression using a four-parameter model.
IC50 values of representative compounds according to the invention measured with these assays in the indicated cell lines are presented in Table 46.
Work on `C[C@H](Oc1nc(-c2onc3c2CCC[C@@]32CCCc3sc(N)c(C#N)c32)nc2c1n(C)c(=O)n2[C@@]12COC[C@@H]1C2)[C@@H]1CC[C@H](C)N1C` [I-45] yielded an IC50 of 9 nM.
`CO[C@H]1C[C@H](n2c(=O)n(C)c3c(O[C@@H](C)[C@@H]4CCCN4C)nc(-c4onc5c4CCC[C@@]54CCCc5sc(N)c(C#N)c54)nc32)C1` [I-16] showed an IC50 of 404 nM.
For `C[C@H](Oc1nc(-c2onc3c2CCC[C@@]32CCCc3sc(N)c(C#N)c32)nc2c1[nH]c(=O)n2[C@@H]1CCOC1)[C@@H]1CCCN1C` [I-8], the IC50 was 258 nM.
`C[C@H](Oc1nc(-c2onc3c2CCC[C@@]32CCCc3sc(N)c(C#N)c32)nc2c1n(C)c(=O)n2[C@@]12COC[C@@H]1C2)[C@@H]1CCCN1C` [I-29] gave an IC50 of 4 nM.
In the case of `C[C@H](Oc1nc(-c2noc3c2CCC[C@@]32CCCc3sc(N)c(C#N)c32)nc2c1CCCO[C@]21CCOC1)[C@@H]1CCCN1C` [II-10], the IC50 is reported as 11 nM.
For `C[C@H](Oc1nc(-c2noc3c2CCC[C@@]32CCCc3sc(N)c(C#N)c32)nc2c1CN(C1COC1)C[C@]21CCOC1)[C@@H]1CC[C@H](C)N1C` [II-17], the IC50 was 109 nM.
Compound `C[C@H](Oc1nc(-c2onc3c2CCC[C@@]32CCCc3sc(N)c(C#N)c32)nc2c1n(C)c(=O)n2[C@@H]1CCCOC1)[C@@H]1CCCN1C` [I-12] has an IC50 of 19 nM.

Tested on: not listed separately
Assay: Plasma protein binding assay (PPB), equilibrium dialysis
Format: in vitro ADME
Settings: bovine, 10% FCS in PBS, read-out: PPB 10% FCS (% fu)
Method: Binding of test compounds to plasma was determined using equilibrium dialysis (ED) and quantitative mass spectrometry interfaced with liquid chromatography (LC-MS). In brief, ED was performed with dialysis devices consisting of two chambers separated by a semipermeable membrane with a molecular weight cut-off of 5-10 kg/mol. One chamber was filled with 10% FCS in PBS containing 1-10 μmol/L test compound and the other chamber was filled with phosphate-buffer saline (PBS) with or without dextran. The dialysis chamber was incubated for 3-5 hours at 37° C. After incubation, protein was precipitated from aliquots of each chamber and the concentration of test compound in the supernatant of the plasma-containing compartment (cserum) and of the buffer-containing compartment (cbuffer) was determined by LC-MS. The fraction of unbound test compound (not bound to plasma) (f) was calculated according to the following equation: […]
Work on `C[C@H](Oc1nc(-c2onc3c2CCC[C@@]32CCCc3sc(N)c(C#N)c32)nc2c1n(C)c(=O)n2[C@@]12COC[C@@H]1C2)[C@@H]1CC[C@H](C)N1C` [I-45] yielded a fraction unbound of 0.2.
With `CO[C@H]1C[C@H](n2c(=O)n(C)c3c(O[C@@H](C)[C@@H]4CCCN4C)nc(-c4onc5c4CCC[C@@]54CCCc5sc(N)c(C#N)c54)nc32)C1` [I-16] the fraction unbound was 0.13.
With `C[C@H](Oc1nc(-c2onc3c2CCC[C@@]32CCCc3sc(N)c(C#N)c32)nc2c1[nH]c(=O)n2[C@@H]1CCOC1)[C@@H]1CCCN1C` [I-8] the fraction unbound was 0.4.
With `C[C@H](Oc1nc(-c2onc3c2CCC[C@@]32CCCc3sc(N)c(C#N)c32)nc2c1n(C)c(=O)n2[C@@]12COC[C@@H]1C2)[C@@H]1CCCN1C` [I-29] the fraction unbound was 0.39.
Work on `C[C@H](Oc1nc(-c2noc3c2CCC[C@@]32CCCc3sc(N)c(C#N)c32)nc2c1CCCO[C@]21CCOC1)[C@@H]1CCCN1C` [II-10] yielded a fraction unbound of 0.28.
`C[C@H](Oc1nc(-c2noc3c2CCC[C@@]32CCCc3sc(N)c(C#N)c32)nc2c1CN(C1COC1)C[C@]21CCOC1)[C@@H]1CC[C@H](C)N1C` [II-17] showed a fraction unbound of 0.1.
For `C[C@H](Oc1nc(-c2onc3c2CCC[C@@]32CCCc3sc(N)c(C#N)c32)nc2c1n(C)c(=O)n2[C@@H]1CCCOC1)[C@@H]1CCCN1C` [I-12], the fraction unbound was 0.18.
